# Data published in US20240382520A1, “COMPOSITION FOR PREVENTING AND TREATING CANCER THROUGH MITOCHONDRIAL METABOLISM REGULATION CONTAINING NANOGRAPHENE STRUCTURE” (SEOUL NATIONAL UNIVERSITY R & DB FOUNDATION, priority 2021, published 2024).
# Test system: colon cancer
# Experiment: Oral administration in colon cancer model induced with Azoxymethane and Dextran sodium sulfate (DSS)
# Format: in vivo, mouse
# Method: It was determined whether orally administering the nanographene structure or a modified structure thereof has an effect on cancer occurrence and the mitigation of progression in vivo. Specifically, according to Table 1, rats that were not induced with colon cancer (sham group) and rats that were induced with colon cancer and administered with nanographene oxide (danGO group) were used, and rats that were induced with colon cancer were used as a negative control group (vehicle group), and as a positive control group, rats that were administered with 5-fluorouracil (5-FU), which is an anticancer drug, were prepared. In the negative control group, colon cancer was induced by using Azoxymethane and Dextran sodium sulfate (DSS). In the danGO group which was the experimental group, danGO was orally administered at a dose of 250 μg/mouse 5 times every 3 days to rats that were induced with colon cancer.
# In the same manner as in Example 7-1, the effect of modified nanographene oxide, NGO-NH2, on in vivo cancer occurrence and progression mitigation was confirmed.
# Next, the spleen was separated and the size and weight were measured in order to determine the effect on the degree of systemic inflammation. The spleen is an important lymphoid organ, accounting for about 25% of the body weight of the lymphatic organ. […]
compound,measurement,setting,value
"O=c1[nH]cc(F)c(=O)[nH]1 [5-FU, 5-fluorouracil]",length of the colon compared to the vehicle group,"Example 7-1, oral, danGO 250 μg/mouse 5 times every 3 days",preserved statistically significantly
same,alleviation of disease (colon length and diameter) compared to the vehicle group,Example 7-2,significantly alleviated
